# Laboratory results from patent US20250269018A1, “COMBINED CANCER THERAPY WITH AN EPITHELIAL CELL ADHESION MOLECULE (EPCAM) INHIBITOR AND A HEPATOCYTE GROWTH FACTOR RECEPTOR (HGFR) INHIBITOR” (ACADEMIA SINICA, priority 2021, published 2025).
# System: GSK3β, active β-catenin and Snail
# Test: Western blotting of GSK3β, active β-catenin, Snail and EMT proteins in HCT116 cells
# Assay type: cell-based, human
# Conditions: HCT116
# Description: FIGS. 4A to 4L. EpEX induces EMT and invasion by stabilizing β-catenin and Snail through decreasing GSK3β activity. (FIG. 4A) The protein expression of EMT markers and regulators was detected by Western blotting in Wild-type (WT) or EpCAM knockout (KO) HCT116 cells after EpEX treatment. (FIG. 4B) Cell invasion was examined by Transwell chamber assay with matrigel. (FIG. 4C) WT or KO HCT116 and HT29 cells were starved for 16 h, then treated with 0.5 nM of HGF with 2% FBS for 24 h. EMT-related protein expression (E-cadherin, vimentin, and Snail) was examined by Western blotting. (FIG. 4D) WT or KO HCT116 and HT29 cells were treated with HGF (0.5 nM) for 24 h. Invasion by HCT116 and HT29 cells was examined by Transwell chamber assay with matrigel. (FIG. 4E) HCT116 and HT29 cells were starved for 16 h, then treated with 0.5 nM of HGF with 2% FBS for 24 h. EMT-related protein expression (E-cadherin, Vimentin, and Snail) was examined by Western blotting. (FIG. 4F) HCT116 and HT29 cells were starved for 16 h, then treated with 0.5 nM of HGF with 2% FBS for 24 h. Cell invasion was assessed by a Transwell assay with matrigel. (FIG. 4G) HCT116 cells after shLuc and shHGFR treatment were treated with 50 nM of EpEX-His. HCT116 cells after shLuc and shHGFR treatment were treated with 50 nM of EpEX-His with 2% FBS for 24 h. EMT-related protein expression (E-cadherin, Vimentin, and Snail) was examined by Western blotting. (FIG. 4H) Cell invasion was examined by Transwell chamber assay with matrigel. (FIG. 4I) Starved HCT116 cells were treated SU (10 μM) for 1 h, followed by treatment with EpEX-His (50 nM) for 24 h. Phosphorylated GSK3β, active-β-catenin, and Snail were detected by Western blotting. (FIG. 4J) HCT116 cells were starved for 16 h, then treated with 50 nM EpEX-His for 24 min. AKT inhibitor LY294002 (25 μM), ERK inhibitor U0126 (20 μM), or PF-562271 (10 μM) were applied 1 h before EpEX treatment. Protein expression of phosphorylated GSK3β and Snail was examined by Western blotting. (FIG. 4K) HCT116 cells were starved for 16 h, then treated with 50 nM EpEX, and SU (10 μM), LY (25 μM), UO (20 μM) or PF (10 μM). Cell invasion was examined by Transwell chamber assay with matrigel. (FIG. 4L) Protein expression was analyzed by Western blotting in EpEX-His (50 nM) treated HCT116 cells after treatment with or without 2 μM GSK3β inhibitor (BIO) for 24 h. Quantification of the normalized protein expression in the right panel.
# FIGS. 5A to 5I. EpEX promotes Snail protein stability through inhibition of ubiquitination-mediated proteasomal degradation. (FIG. 5A) The gene expression of EMT markers and regulators was detected by qRT-PCR in Wild-type (WT) or EpCAM knockout (KO) of HCT116 and HT29 cells. (FIG. 5B) Stability of Snail protein in WT or KO of HCT116 cells. Cells were treated with cyclohexamide (CHX) 100 μg/ml at the indicated intervals and subjected to Western blotting. (FIG. 5C) The protein expression of Snail was analyzed in WT or KO HCT116 cells by treating with or without […] MG132 (proteasome inhibitor) for 6 h, followed by Western blotting. (FIG. 5D) WT or KO HCT116 cells were treated with 10 μM MG132 for 6 h before cell collection. The lysates were subjected to immunoprecipitation using anti-Snail antibody and input. Western blotting was performed with the indicated antibodies to detect ubiquitinated Snail protein. (FIG. 5E) Stability of Snail protein in HCT116 cells after EpEX (50 nM) treatment for 24 h. Cells were treated with cyclohexamide (CHX; 100 μg/ml) for the indicated intervals and then subjected to Western blotting. (FIG. 5F) Expression of the gene encoding SNAIL was detected by qRT-PCR in HCT116 cells after EpEX (50 nM) treatment for 24 h. (FIG. 5G) The protein expression of Snail in HCT116 was analyzed cells by Western blotting after EpEX (50 nM) treatment for 24 h, and treatment with or without 10 μM MG132 (proteasome inhibitor) for 6 h. […]
# [1] = LY294002 25 μM, U0126 20 μM or PF-562271 10 μM 1 h before 50 nM EpEX-His for 24 min, FIG. 4J
# [2] = SU 10 μM 1 h, then EpEX-His 50 nM 24 h, FIG. 4I
Compound,EpEX-mediated GSK3β activity [1],EpEX-mediated Snail protein expression [1],EpEX-induced active β-catenin and Snail protein expression [2],EpEX-mediated GSK3β activity [2]
CN(c1ncccc1CNc1nc(Nc2ccc3c(c2)CC(=O)N3)ncc1C(F)(F)F)S(C)(=O)=O [PF-562271],attenuate EpEX-mediated GSK3β activity,attenuate,,
N#CC(=C(/N)Sc1ccccc1N)/C(C#N)=C(\N)Sc1ccccc1N [U0126],attenuate EpEX-mediated GSK3β activity,attenuate,,
"Cc1[nH]c(C=C2C(=O)Nc3ccc(S(=O)(=O)N(C)c4cccc(Cl)c4)cc32)c(C)c1C(=O)N1CCN(C)CC1 (stereo in doubt) [SU11274, (3Z)-N-(3-Chlorophenyl)-3-({3,5-dimethyl-4-[(4-methylpiperazin-1-yl)carbonyl]-1H-pyrrol-2-yl}methylene)-N-methyl-2-oxo-2,3-dihydro-1H-indole-5-sulfonamide]",,,abolish EpEX-induced active β-catenin and Snail protein expression,attenuate EpEX-mediated GSK3β activity
